This is an account of results in US10604473B2, “Lipids that increase insulin sensitivity and methods of using the same” (Beth Israel Deaconess Medical Center, Inc., priority 2013, dated 2020).

In series [1] the test system is Ins1 cells. Put plainly: Insulin release in INS1 cells. The note with it: 25 mM glucose in the media. Type of series: cell-based. How it is done: Ins1 cells (FIG. 21) or primary rat islet cells (FIG. 22) were seeded in 24 well-plates [˜10^6 cells/well]. At confluence, cells were incubated with Low Serum [2.5%] and Low Glucose [2.5 mM] media for 12 hours. Next, cells were incubated with KRB buffer for 1 h and stimulated with glucose in the presence of 5-PAHSA (FIG. 21) or 9-PAHSA (FIG. 21) for 45 min in KRB. At the end of the stimulation, 100 μL of media was collected and 10 μL was used to quantitate the amount of insulin released by ELISA. Treatment Conditions for FIGS. 21 and 22 were: • 5-PAHSA or 9-PAHSA [Stock]=20.0 mM [10.76 mg/mL Methanol] • A] 1 uM=0.3 uL/6 mL [Amount of methanol/mL=0.05 uL] • B] 5 uM=1.5 uL/6 mL [Amount of methanol/mL=0.25 uL] • C] 10 uM=3.0 uL/6 mL [Amount of methanol/mL=0.50 uL] • D] 20 uM=6.0 uL/6 mL [Amount of methanol/mL=1.00 uL]
INS-1 cells were seeded in 24 well-plates [˜10^6 cells/well] and at 80% confluence, were cultured overnight in RPMI 1640 medium containing 2.5 mM glucose and 2.5% fetal bovine serum supplemented with 100 IU/ml penicillin and […], 1 mM sodium pyruvate, 2-mercaptoethanol (50 μM) and 10 mM HEPES (pH 7.4). […] At the end of the stimulation supernatant was collected and insulin released into the medium was quantified by ELISA as per manufacturer's protocol. […]

The test system of series [2] is Human islets. The series can be described thus: Glucose-stimulated insulin secretion in primary human islets. Type of series: cell-based. As for the experimental part:
Two human donors provided cells used in these studies. Donor1 was a person, 5′0″, 157 lbs, with a BMI of 30.5, HbA1C was 5.8, who died from a stroke, but it was witnessed and they had no downtime. Islets were 80% pure and 95% viable. After arrival, islets were incubated overnight in human islet media before stimulation with glucose in presence and absence of 5-PAHSA (lipid A-5). Note 1 IU of Human Insulin=6 nmol=34.8 μg Insulin.
Human islets were divided into ten groups [100 islets per condition]
A] Low glucose [2.5 mM]; B] High glucose [20.0 mM]; C] Low glucose [2.5 mM]+2.5 μL/mL Methanol; D] High glucose [20.0 mM]+2.5 μL/mL Methanol; E] Low glucose+20 μM Lipid A-5; F] High glucose+20 μM Lipid A-5; G] Low glucose+50 μM Lipid A-5; H] High glucose+50 μM Lipid A-5.
Islets were cultured overnight in Human Islet media and next day incubated with KRB buffer for 4 h prior to glucose stimulation.
Following KRB incubation, islets were stimulated with glucose [2.5 mM & 20.0 mM] in the presence and absence of Lipid A-5 [20 & 50 μM] for 45 min
At the end of glucose stimulation the amount of insulin released [μ IU/mL] into the media was measured using Human Insulin ELISA kit. And the insulin content from the islets were extracted to express insulin released into the media as μ IU/mL/islet content.
Donor 2 was a person, 183 cm, 176 lbs, with a BMI of 23.9, HbA1C was 5.0, died from a stroke, but it was witnessed and they had no downtime. Islets were 85% pure and 95% viable. After arrival, islets were incubated overnight in human islet media before stimulation with glucose in presence and absence of 5-PAHSA (Lipid A-5).
Human islets were divided into […] [75 islets per condition]: A] Low glucose [2.5 mM]; B] High glucose [20.0 mM]; C] Low glucose [2.5 mM]+2.5 μL/mL Methanol; D] High glucose [20.0 mM]+2.5 μL/mL Methanol; E] Low glucose+20 μM Lipid A-5; F] High glucose+20 μM Lipid A-5.
Following KRB incubation, islets were stimulated with glucose [2.5 mM & 20.0 mM] in the presence and absence of Lipid A-5 [20 μM] for 45 min.

Series [3] relates to insulin-resistant high-fat fed mice. Put plainly: Oral glucose tolerance test in HFD-fed mice. The note with it: for basal glycemia: 30 minutes after oral administration; for area under the glucose excursion curve / glucose tolerance: OGTT, gavage 30 min prior. Type of series: in vivo, mouse. As for the experimental part: (§1) Area under the curve (AUC), *p<0.05 compared to vehicle. […] Area above the curve (AAC). *p<0.05 compared to vehicle. […] Area under the curve (AUC). *p<0.05 compared to vehicle. FIG. 53D is a bar graph showing serum insulin levels 5 min post glucose challenge in chow-fed mice gavaged with 5-PAHSA or vehicle (glucose values shown in FIG. 53C). n=12-14 per group, *p<0.05 compared to vehicle by t-test. FIG. 53E is a bar graph showing serum GLP-1 levels 5 min post glucose challenge from chow-fed mice gavaged with 5-PAHSA or vehicle (glucose levels in FIG. 53C). n=12-14 per group, *p<0.05 compared to vehicle by t-test. FIG. 53F are bar graphs showing insulin secretion from primary human islets from two independent donors. Islets were incubated with low (2.5 mM) or high (20 mM) glucose ex vivo in the presence of 5-PAHSA (20 μM) or vehicle control. n=100 islets per condition, *p<0.05 compared to control 2.5 mM glucose, ^#p<0.05 compared to respective treatments at 2.5 mM glucose, ^$p<0.05 compared to control or diluents at 20 mM glucose by t-test. FIG. 53G are bar graphs showing active GLP-1 secretion from STC-1 cells in response to 5-PAHSA (5-P), 9-PAHSA (9P), […] (LA), GW9508 (GW) or vehicle control (DMSO). n=4 per group, *p<0.05 compared to vehicle by t-test. All data are mean±s.e.m. See also FIG. 56.

The test system is the same in series [4]. The series can be described thus: Insulin tolerance test in HFD-fed mice. It counts as in vivo, mouse. The note with it: for baseline glycemia: 2.5-3 hours after administration; for area above the insulin response curve / insulin sensitivity: ITT. As for the experimental part: as §1
Series [5] in a line: FAHFA hydrolysis assay (9-PAHSA to 9-HSA), liver lysate. As to conditions: liver lysate 1 mg/ml protein, 100 μM, 37° C., two hours.
Procedure: To establish whether or not FAHFA can be enzymatically degraded, an LC-MS-based in vitro activity assay was developed to measure the hydrolysis of 9-PAHSA to 9-HSA. […] Liver lysate (1 mg/ml protein) was incubated with 100 μM 9-PAHSA at 37° C. for two hours. The reaction mixture was then extracted with one volume ethyl acetate, concentrated under nitrogen gas stream, and reconstituted in 1:1 chloroform:methanol for MS analysis.

The structures appear in SMILES notation.

Turning to `CCCCCCCCCCCCCCCC(=O)OC(CCCCCCCCCCCCC)CCCC(=O)O` (stereo not shown) [5-PAHSA], in series [1], the insulin secretion result was “potentiate insulin secretion”. The insulin secretion entry in series [2] (2.5 mM glucose, 5-PAHSA 20 μM) is given as “had no effect on insulin secretion”. Moreover, the insulin secretion response result in series [2] (20 mM glucose, 5-PAHSA 20 μM) is on record as “augmented the insulin secretion response”. Also, in series [2] (Donor 1), the “Glucose Stimulated Insulin Secretion” value is “induces Glucose Stimulated Insulin Secretion”. In addition, in series [2] (Donor 2), the “Glucose Stimulated Insulin Secretion” value was “induces Glucose Stimulated Insulin Secretion”. Also, in series [3], the basal glycemia result is “lowered basal glycemia”, the “area under the glucose excursion curve” value was “reduced area under the glucose excursion curve” and the glucose tolerance entry was “improved glucose tolerance”. For the same compound, in series [4], the baseline glycemia entry was “lowered baseline glycemia”, the “area above the insulin response curve” value is on record as “more than a doubling” and the insulin sensitivity entry is given as “improved insulin sensitivity”.
Consider `CCCCCCCCCCCCCCCC(=O)OC(CCCCCCCCC)CCCCCCCC(=O)O` (stereo not shown) [9-PAHSA, palmitoyl-9-hydroxystearic acid], for which the insulin secretion entry in series [1] was “potentiate insulin secretion”. Moreover, in series [3], the basal glycemia entry is given as “lowered basal glycemia”, the “area under the glucose excursion curve” value is on record as “reduced area under the glucose excursion curve” and the glucose tolerance entry was “improved glucose tolerance”. Further, in series [4], the baseline glycemia result is “lowered baseline glycemia”, the “area above the insulin response curve” value is recorded as “more than a doubling” and the insulin sensitivity entry was “improved insulin sensitivity”. For the same compound, the “hydrolysis of 9-PAHSA to 9-HSA” value in series [5] is “Substantial 9-HSA production”.
